Earlier results on six compounds are cited in paper PMC3350394, “Kinetic analysis and test-retest variability of the radioligand [^11C](R)-PK11195 binding to TSPO in the human brain - a PET study in control subjects” (EJNMMI Research, 2012).

SMILES strings stand for the structures.

The target in one data set is dopamine D2/3 receptor. More on the design: method as in PMID 2528555, PMID 8122313. The conditions noted are these: approximately; read-out: affinity; cited from earlier work.
The conditions of data set [1]: same experimental setting and analytical approach; cited from earlier work.
On the set-up of data set [2]: method as in PMID 2528555. Conditions: cited from earlier work.
On the set-up of data set [3]: method as in PMID 2528555. The conditions noted are these: cited from earlier work. This is another data set of the same source.
For data set [4], the system named is TSPO. Details: method as in PMID 19948230. The conditions noted are these: up; cited from earlier work.
The test system of data set [5] is TSPO. Details: method as in PMID 15103694. Conditions: unlabelled displacer; cited from earlier work.
In data set [6] the test system is human serum albumin (HSA). Details: method as in PMID 12623120. The conditions noted are these: relative to AGP; cited from earlier work.
Data set [7] has as its system alfa1-acid glycoprotein (AGP). Details: method as in PMID 12623120. The conditions noted are these: cited from earlier work.

For `CCN1CCC[C@H]1CNC(=O)c1c(O)c(Cl)cc(Cl)c1OC` (racemic) [[^11C]raclopride], the Kd on dopamine D2/3 receptor is 1 to 3 nM. For `CCN1CCC[C@H]1CNC(=O)c1c(O)c(Cl)cc(Cl)c1O[11CH3]` (racemic) [[^11C]raclopride], the K1 in data set [1] is recorded as 0.16. The first pass extraction result in data set [2] is listed as “about 20%”. For the same compound, the plasma protein binding in data set [3] is given as 96%. `COc1ccccc1CN(C(C)=O)c1cnccc1Oc1ccccc1` [PBR28]: in the data set with TSPO [4], the “displacement of [11C](R)-PK11195 binding” value is 40% to 60.

As to `CCC(C)N(C)C(=O)c1cc2ccccc2c(-c2ccccc2Cl)n1` (stereo not drawn) [PK11195, 1-(2-chlorophenyl)-N-methyl-N-(1-methylpropyl)-3-isoquinoline carboxamide], the “displacement of the total [11C]DAA1106 binding” value in the data set on TSPO [5] was “about 70%”. Regarding `CCC(C)N(C)C(=O)c1cc2ccccc2c(-c2ccccc2Cl)n1` (stereo not drawn) [[^3 H]PK11195, 1-(2-chlorophenyl)-N-methyl-N-(1-methylpropyl)-3-isoquinoline carboxamide], the “binding to HSA” value in data set [6] was “to a lesser extent”. Moreover, the “binding to AGP” value in data set [7] is recorded as “high affinity”. For the compound `CCN1CCC[C@H]1CNC(=O)c1cc(Br)cc(OC)c1O[11CH3]` [[^11C]FLB-457], the K1 in data set [1] was 0.42.
